{
  "source": "patent US20250360167A1",
  "about": "(Keryx Biopharmaceuticals, Inc., priority 2013, published 2025)",
  "system": "serum phosphorus",
  "assay": "Phase 3 trial in ESRD patients on dialysis (Example 1), 52-week Safety Assessment Period: serum phosphorus vs active control",
  "format": "in vivo, human",
  "conditions": "for Mean Serum Phosphorus / Mean Serum Phosphorus, % Change from Baseline / Mean Serum Phosphorus, Change from Baseline: Table B; for Serum Phosphorus, Mean / Serum Phosphorus, Median: Safety Assessment Period; for Serum Phosphorus, Mean / Serum Phosphorus, Median / Serum Phosphorus, LS Mean / Serum Phosphorus, Change from Baseline, Mean / Serum Phosphorus, Change from Baseline, Median / Serum Phosphorus, Treatment Differences, LS Mean (KRX-0502) − LS Mean (control): Table 13; for Serum Phosphorus, Change from Baseline, Mean / Serum Phosphorus, Change from Baseline, Median: Day 0 baseline",
  "procedure": "This trial was a three-period, multicenter, safety and efficacy clinical trial.\nPeriod 2 (Safety Assessment Period). […] Patients were followed on their randomized assignment for safety assessments over 52 weeks.\nFor patients randomized to the active-control group, the starting dose of phosphate binder was the last dose that was administered immediately prior to the start of the Washout Period (if the patient remained on the same phosphate binder) or at the discretion of the PI, guided by the package insert, if the patient changed binders. However, for patients whose previous dose of phosphate binder exceeded 12 pills/day, if randomized to the active-control group, their starting dose of active-control drug was at the discretion of the PI, but will not exceed 12 pills/day. Calcium acetate 667 mg capsules and sevelamer carbonate 800 mg tablets were used and were supplied by Keryx Biopharmaceuticals, Inc. (Keryx) for the duration of the trial.\nSerum phosphorus and calcium were checked at Visit 5 (Week 1), and every two weeks during the first 12 weeks after Visit 4 (Randomization Visit), and monthly for the rest of the Safety Assessment Period. During the Efficacy Assessment Period, serum phosphorus and calcium were drawn weekly. These values guided study drug administration. While on study drug, the use of other phosphate binders was not permitted. […] The titration of calcium acetate and sevelamer carbonate throughout the 52-week Safety Assessment Period were according to the current package inserts for these agents and/or at the discretion of the site PI.\nSerum phosphorus and calcium were performed at Screening (Visit 0); weekly during the Washout Period after Visit 1 (Week −2); at Visit 4 (Randomization Visit); at Visits 5 (Week 1), 6 (Week 2), 7 (Week 4), 8 (Week 6), 9 (Week 8), 10 (Week 10), 11 (Week 12), 12 (Week 16), 13 (Week 20), 14 (Week 24), 15 (Week 28), 16 (Week 32), 17 (Week 36), 18 (Week 40), 19 (Week 44), 20 (Week 48), and 21 (Week 52) of the 52-week Safety Assessment Period; and at Visits 22 (Week 53), 23 (Week 54), 24 (Week 55) and 25 (Week 56) of the Efficacy Assessment Period.\nThe efficacy analyses were based on Full Analysis (FA) population that consisted of all patients who took at least one dose of study medication and provided baseline and at least one post-baseline efficacy assessment. The safety analyses were based on safety population that was consistent of all patients who took at least one dose of study medication.\n• 1. Change in serum phosphorus concentration at Weeks 12, 24, 36, 48, and 52 as compared to baseline (Visit 4). This variable will be analyzed using LOCF methodology. ANCOVA will be employed. The model will include treatment (fixed effect), and baseline (covariate).",
  "data": [
    {"substance": "iron (+3), x (1, 2, 3-propanetricarboxylic acid, 2-hydroxy-), y (H2O) [KRX-0502]", "values": [
      {"measurement": "Mean Serum Phosphorus", "setting": "Baseline, N = 277", "value": 7.4, "unit": "mg/dL"},
      {"measurement": "Phosphorus, Median", "setting": "Baseline, Table 12", "value": 7.20, "unit": "mg/dL"},
      {"measurement": "Phosphorus, Mean", "setting": "Baseline, Table 12, vs sevelamer carbonate as a single agent", "value": 7.39, "unit": "mg/dL"},
      {"measurement": "Serum Phosphorus, Mean", "setting": "Day 0 Baseline", "value": 7.39},
      {"measurement": "Serum Phosphorus, Median", "setting": "Day 0 Baseline", "value": 7.20},
      {"measurement": "Phosphorus, Week 12 Change from Baseline, Mean", "setting": "Table 12", "value": -2.01, "unit": "mg/dL"},
      {"measurement": "Phosphorus, Week 12 Change from Baseline, Median", "setting": "Table 12", "value": -2.00, "unit": "mg/dL"},
      {"measurement": "Phosphorus, LS Mean", "setting": "Week 12, ANCOVA, Day-0 baseline covariate, Table 12", "value": 5.38, "unit": "mg/dL"},
      {"measurement": "Serum Phosphorus, LS Mean", "setting": "Week 12, ANCOVA", "value": 5.39},
      {"measurement": "Serum Phosphorus, Change from Baseline, Mean", "setting": "Week 12", "value": "−2.01"},
      {"measurement": "Serum Phosphorus, Change from Baseline, Median", "setting": "Week 12", "value": "−2.00"},
      {"measurement": "Mean Serum Phosphorus", "setting": "Week 12, LOCF", "value": 5.4, "unit": "mg/dL"},
      {"measurement": "Serum Phosphorus, Mean", "setting": "Week 12", "value": 5.38},
      {"measurement": "Serum Phosphorus, Median", "setting": "Week 12", "value": 5.10},
      {"measurement": "Phosphorus, Mean", "setting": "Week 12, Table 12", "value": 5.38, "unit": "mg/dL"},
      {"measurement": "Phosphorus, Median", "setting": "Week 12, Table 12", "value": 5.10, "unit": "mg/dL"},
      {"measurement": "Serum Phosphorus, Treatment Differences, LS Mean (KRX-0502) − LS Mean (control)", "setting": "Week 12", "value": 0.07},
      {"measurement": "Mean Serum Phosphorus, % Change from Baseline", "setting": "Week 12", "value": "−27", "unit": "%"},
      {"measurement": "Mean Serum Phosphorus, Change from Baseline", "setting": "Week 12", "value": -2.0, "unit": "mg/dL"},
      {"measurement": "Phosphorus, Treatment Differences, LS Mean (KRX-0502) − LS Mean (Control)", "setting": "Week 12, control = sevelamer carbonate as a single agent", "value": 0.16, "unit": "mg/dL"},
      {"measurement": "Serum Phosphorus, LS Mean", "setting": "Week 24, ANCOVA", "value": 5.26},
      {"measurement": "Serum Phosphorus, Change from Baseline, Mean", "setting": "Week 24", "value": "−2.14"},
      {"measurement": "Serum Phosphorus, Change from Baseline, Median", "setting": "Week 24", "value": "−2.10"},
      {"measurement": "Mean Serum Phosphorus", "setting": "Week 24, LOCF", "value": 5.2, "unit": "mg/dL"},
      {"measurement": "Serum Phosphorus, Mean", "setting": "Week 24", "value": 5.24},
      {"measurement": "Serum Phosphorus, Median", "setting": "Week 24", "value": 5.10},
      {"measurement": "Serum Phosphorus, Treatment Differences, LS Mean (KRX-0502) − LS Mean (control)", "setting": "Week 24", "value": "−0.21"},
      {"measurement": "Mean Serum Phosphorus, % Change from Baseline", "setting": "Week 24", "value": "−30", "unit": "%"},
      {"measurement": "Mean Serum Phosphorus, Change from Baseline", "setting": "Week 24", "value": -2.2, "unit": "mg/dL"},
      {"measurement": "Serum Phosphorus, LS Mean", "setting": "Week 36, ANCOVA", "value": 5.24},
      {"measurement": "Serum Phosphorus, Change from Baseline, Mean", "setting": "Week 36", "value": "−2.16"},
      {"measurement": "Serum Phosphorus, Change from Baseline, Median", "setting": "Week 36", "value": "−2.10"},
      {"measurement": "Mean Serum Phosphorus", "setting": "Week 36, LOCF", "value": 5.2, "unit": "mg/dL"},
      {"measurement": "Serum Phosphorus, Mean", "setting": "Week 36", "value": 5.22},
      {"measurement": "Serum Phosphorus, Median", "setting": "Week 36", "value": 5.10},
      {"measurement": "Serum Phosphorus, Treatment Differences, LS Mean (KRX-0502) − LS Mean (control)", "setting": "Week 36", "value": "−0.05"},
      {"measurement": "Mean Serum Phosphorus, % Change from Baseline", "setting": "Week 36", "value": "−30", "unit": "%"},
      {"measurement": "Mean Serum Phosphorus, Change from Baseline", "setting": "Week 36", "value": -2.2, "unit": "mg/dL"},
      {"measurement": "Serum Phosphorus, LS Mean", "setting": "Week 48, ANCOVA", "value": 5.33},
      {"measurement": "Serum Phosphorus, Change from Baseline, Mean", "setting": "Week 48", "value": "−2.07"},
      {"measurement": "Serum Phosphorus, Change from Baseline, Median", "setting": "Week 48", "value": "−2.10"},
      {"measurement": "Mean Serum Phosphorus", "setting": "Week 48, LOCF", "value": 5.3, "unit": "mg/dL"},
      {"measurement": "Serum Phosphorus, Mean", "setting": "Week 48", "value": 5.32},
      {"measurement": "Serum Phosphorus, Median", "setting": "Week 48", "value": 5.20},
      {"measurement": "Serum Phosphorus, Treatment Differences, LS Mean (KRX-0502) − LS Mean (control)", "setting": "Week 48", "value": "−0.12"},
      {"measurement": "Mean Serum Phosphorus, % Change from Baseline", "setting": "Week 48", "value": "−28", "unit": "%"},
      {"measurement": "Mean Serum Phosphorus, Change from Baseline", "setting": "Week 48", "value": -2.1, "unit": "mg/dL"},
      {"measurement": "Serum Phosphorus, LS Mean", "setting": "Week 52, ANCOVA", "value": 5.33},
      {"measurement": "Serum Phosphorus, Change from Baseline, Mean", "setting": "Week 52", "value": "−2.06"},
      {"measurement": "Serum Phosphorus, Change from Baseline, Median", "setting": "Week 52", "value": "−2.20"},
      {"measurement": "Mean Serum Phosphorus", "setting": "Week 52, LOCF", "value": 5.3, "unit": "mg/dL"},
      {"measurement": "Serum Phosphorus, Mean", "setting": "Week 52", "value": 5.32},
      {"measurement": "Serum Phosphorus, Median", "setting": "Week 52", "value": 5.20},
      {"measurement": "Serum Phosphorus, Treatment Differences, LS Mean (KRX-0502) − LS Mean (control)", "setting": "Week 52", "value": "−0.01"},
      {"measurement": "Mean Serum Phosphorus, % Change from Baseline", "setting": "Week 52", "value": "−28", "unit": "%"},
      {"measurement": "Mean Serum Phosphorus, Change from Baseline", "setting": "Week 52", "value": -2.1, "unit": "mg/dL"}
    ]}
  ]
}
